From US20190169134A1, “NOVEL CLASS OF QUINOLONE HETEROCYCLIC AROMATIC MOLECULES FOR CANCER TREATMENT” (RenoTarget Therapeutics, Inc., priority 2016, published 2019)

What was measured:
Type in all cases: cell-based, human
HCC827P = assay: Cell growth inhibition by SRB method; conditions: Homo sapiens; 72 hrs exposure, SRB
Source text: (§1) Six human cancer cell lines have been used to evaluate effects of the compounds on proliferation of cancer cells. These cell lines include HCC827-P (or HCC827 parent cells), human non-small lung cancer cells, Parent NSCLC HCC827 cell line (which harbors EGFR gene amplification, Exon 19 (E19) deletion, and Exon 21 mutation (Wang, Ramakrishnan et al. 2010), and is an EGFRi sensitive cell line (Kim, Kim et al. 2010)); HCC827-TR16 (Tarceva-resistant HCC727 cell line), HCC827-OR16 (AZD9291-resistant HCC727 cell line), LNCaP (human prostate cancer cells—a hormonal-therapy sensitive cell line (Wang, Liu et al. 1997)); 22RV1 (human prostate cancer cells—a hormonal-therapy resistant cell line (Sramkoski, Pretlow et al. 1999)); and ACHN (human renal adenocarcinoma cells (Park, Jung et al. 2003)). LNCaP cells and 22RV1 cells were purchased from the American Type Culture Collection (Rockville, Md.) and others were gifts of friends.
(§2) To evaluate activities of new compounds on growth of EGFR-inhibitor-resistant cells, two EGFRi-resistant cell lines, i.e., HCC827-TR16 and HCC827-OR16 were established using a method described by Eberlein et al. (Eberlein, Stetson et al. 2015). […] Resistant cells were collected and stabilized after 5 weeks (cycle 5). […] The resistant cells were sorted using 96-well dishes by culturing cells with density of 0.1, 1, 10, and 100 cells per well.
(§3) All cell lines were maintained in RPMI-1640 (GIBCO, Gaithersburg, Md.) with 10% heat-inactivated bovine serum (FBS) (Wang, Ossowski et al. 2004).
(§4) Sulforhodamine B (SRB) was used to estimate cell growth as described previously (Skehan, Storeng et al. 1990). Briefly, cells grown exponentially were aliquoted into 96-well plates at a density of 2,500 to 5,000 cells/200 μl per well in RPMI 1640 medium containing 10% FBS. After twenty-four hours, the cells were exposed to indicated concentrations of tested compounds for 72 hrs or otherwise as indicated. The cells were then fixed with 10% trichloride acetic acid for 2 h at 4° C. The 10% trichloride acetic acid was removed, and the dishes were washed 5 times with tape water, and air-dried. The fixed and dried cells were then stained with 0.4% SRB in 1% acetic acid for 25 min, and the dishes were washed 5 times with 1% acetic acid and air-dried overnight. 200 μl of 10 mM of Tris buffer (pH 10.0) were added, and the dishes were rotated to completely dissolve the color. Absorbance at 570 nm, with a reference wavelength 690 nm, was measured on a 96-well microplate reader (SPECTRO Star^Nano, BMG Labtech). Mean, standard deviation (SD) and the percent of growth inhibition at each concentration point of the treatment were calculated. The percent of growth inhibition as defined as (1−T/C)×100 where T is the mean of the absorbance at 570 nm from the treatment, and C from control (drug vehicle only). IC50 was calculated using Sigma-plot software by regression of growth-concentration curve from each drug treatment.

HCC827OR16 = assay: Cell growth inhibition by SRB method; conditions: Homo sapiens, AZD9291-resistant line, 72 hrs exposure
Source text: as §1, §2, §3, §4

HCC827 P cells = assay: Western blot of EGFR downstream signaling; conditions: 24 hrs
Description: The cells were washed with PBS, harvested and cellular proteins were extracted. […] Protein or phosphor-protein levels of pEGFRTyr1068, pEGFRTry845, pAktSer473, pStat3Tyr705, MEK1/2, pMEK1/2, p27, and pp70 S6 kinase 2 were determined by Western blot using specific antibodies. β-actin was used as loading control.
HCC827 P or other indicated cells at exponential growth phase were treated with indicated compounds for 24 hrs. The cells were washed with PBS, harvested and cellular proteins were extracted.

HCC827-P = assay: qRT-PCR expression of Caspase 3, Caspase 9 and p21; conditions: 24 h
Description: FIG. 10 depicts the effect of Reno647 on expressions of Caspase 3, Caspase 9 and p21 in HCC827-P and on Box, Bcl2, p53 and p21 in HCC827-OR16 cells. […] Total cellular RNA was extracted and cDNA was prepared followed by qRT-PCR using specific probes as described in the section of Materials and Methods. Tgene ΔCt value was normalized for GAPDH by calculating ΔCt=Ctgene−CtGAPDH per sample.
HCC827 P or other indicated cells at exponential growth phase were treated with indicated concentrations of compounds for 24 hours. Total cellular RNA was prepared from lysed tumor cells using an RNA Purification kit (ThermoFisher Scientific). The first-strand of cDNA was synthesized using a High Capacity cDNA reverse transcription kit (ThermoFisher Scientific) in PTC-100 Peltier Thermal Cycler PCR. The resultant cDNA (0.5-1 μL) was used in a 10 μl reaction by using Taqman Universal PCR Master Mix (ThermoFisher Scientific). The pre-designed primers and probe were purchased from Life Technologies and used for qPCR. Human GAPDH was used as an internal control. qPCR was performed using Applied Biosystems StepOne and StepOnePlus Real-Time PCR Systems according manufacturer's instructions. An initial PCR denaturation step was performed at 95° C. for 20 seconds. The general cycling stage for qPCR were as follows: denaturation at 95° C. for 1 second, annealing and extension at 60° C. for 20 seconds, repeat for 40 cycles. Tgene ΔCt value was normalized for GAPDH by calculating ΔCt=Ctgene−CtGAPDH per sample.

## C#Cc1cccc(Nc2ncnc3cc(OCCOC)c(NC(=O)c4ccc(F)c([N+](=O)[O-])c4)cc23)c1 [Reno647, 4-Fluoro-N-[4-(3-ethynyl-phenylamino)-7-(2-methoxy-ethoxy)-quinazolin-6-yl]-3-nitro-benzamide]
HCC827P
  IC50: 150 nM
HCC827OR16
  IC50: 380 nM
HCC827 P cells
  Phospho-Akt level: significantly reduced
  level of pEGFRTyr845: significantly decreased
  level of pEGFRTyr1068: significantly decreased
  level of pERK1/2 (Ras/Raf/MEK pathway): significant decrease
  p27 level: induction
  pp-70-6S activity (p70-S6 activation): significant decreases
  total MEK1/2 protein level: no changes
HCC827-P; q-RT-PCR
  p21 expression: significant induction
HCC827-P; qRT-PCR
  Caspase 3 expression: moderate increase
  Caspase 9 expression: significant and concentration-dependent induction
